Data as given in patent US9403806B1, “Cognition enhancing compounds and compositions, methods of making, and methods of treating” (NeuroSolis, Inc., priority 2010, dated 2016).

How the values were obtained:
PAMPA test, Example 34 = conditions: PAMPA
[1] = Plasma concentration in rats, iontophoresis patch versus oral gavage; format: in vivo, Long Evans Hooded rat; conditions: rat
Source text: Two patches were made up, consisting (in order from the outer layer to the skin contacting surface, respectively): adhesive tape (Transpore, 27 mm wide, 3M), circular stainless steel electrodes (22 mm dia) with a central hole for a stainless steel machine screw to which the electrode wire was attached, and 2 layers of 3MM CHR filter paper (Cat #3030-861, Whatman International, Ltd).
The mid-dorsal area of a Long Evans Hooded rat (approximate weight, 320 grams), surgically prepared with a jugular vein catheter (Charles River), was shaved and the skin was then cleaned using an Electrode Prep Pad (Professional Disposables, Inc, Cat #B59800). […]
Blood (400 μl) was withdrawn from the catheters in each rat every 30 minutes, transferred to 1.5 ml centrifuge tubes containing heparin (15 units/tube), and the plasma was separated by centrifugation from the cellular components. The plasma samples were maintained at 4 deg C. until analyzed. […]
The ultra-filtrates were subjected to reverse-phase liquid chromatography using a 150×2.1 mm Agilent C8 reverse-phase column on a Shimadzu Prominence LC, eluting the MCD-386 with an isocratic flow of 2% acetonitrile+0.1% formic acid. The concentration of MCD-386 in the column effluent was measured using an Applied Biosystems API-3200 triple quadrupole mass spectrometer equipped with a Turbo V source (electrospray sample injection) system. […]

CD-I mice = test: Apomorphine induced climbing model of psychosis; format: in vivo; conditions: mice, sc, apomorphine 2 mg/kg (FIG. 1)
Procedure: As described in Costall et. al. European Journal of Pharmacology 1978, 50, 39. individual CD-I mice, 1-2 months old, were placed in a cylindrical wire mesh cage (13.2 cm high×13.2 cm diameter) constructed of steel wire 1 mm thick spaced at 1.2 cm^2. Cylinders were placed in a standard OptiMICE mouse cage (29×32×9×29 cm and 14 cm high) with adequate wood chip bedding provided. Observations of climbing (defined as 3 or more paws of the ground) were carried out every 5 minutes at a duration of 1 minute for […]. Animals were injected subcutaneously under isoflurane anesthesia with test compounds, reference compounds, which included clozapine, haloperidol, olanzapine and xanomeline, or PBS as a control. This was followed 5 minutes later by 2 mg/kg apomorphine hydrochloride. All drugs were dissolved in PBS or a mixture of (by volume) 96% PBS and 4% hydroxypropyl-beta-cyclodextrin, and dosed at a rate of 5 ml per kilogram of body weight. Following injections, animals were replaced in the mesh cages and observed for climbing (defined as 3 or more paws off the ground) every 5 minutes for 1 minute for 60 minutes after dosing.

rat M1 receptors = target: T1, rat M1 receptors (Rattus norvegicus, UniProt P08482); test: PI turnover (inositol phosphate production) in M1-CHO cells; format: cell-based; conditions: mean Smax relative to carbachol (100.0); CHO cells expressing rat M1
T1 construct: host or cells: CHO (M1-CHO)
T1 sequence (P08482 1-460): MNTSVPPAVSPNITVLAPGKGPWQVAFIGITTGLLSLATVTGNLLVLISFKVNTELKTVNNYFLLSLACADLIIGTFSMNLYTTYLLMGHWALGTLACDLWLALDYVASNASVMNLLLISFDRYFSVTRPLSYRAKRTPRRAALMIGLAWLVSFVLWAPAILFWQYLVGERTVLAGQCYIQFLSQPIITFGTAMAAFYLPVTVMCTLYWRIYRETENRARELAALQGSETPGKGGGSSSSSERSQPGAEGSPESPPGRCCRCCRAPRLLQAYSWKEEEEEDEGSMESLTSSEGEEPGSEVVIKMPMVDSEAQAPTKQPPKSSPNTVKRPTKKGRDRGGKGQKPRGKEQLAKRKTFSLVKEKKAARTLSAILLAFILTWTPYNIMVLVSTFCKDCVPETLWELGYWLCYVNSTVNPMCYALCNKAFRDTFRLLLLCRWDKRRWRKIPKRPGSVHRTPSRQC
Procedure: (§1) The medium was changed to 70 μL/well of inositol-free DMEM containing 2 mM glutamine, 10% FBS and 10 μCi/ml of [3H]-inositol (PE:cat # NET114A250UC), incubated overnight as above, then 100 μL of a solution of the test compound in HBSS containing 10 mM LiCl and 20 mM HEPES, pH 7.4 was added, incubation was continued for 60 min under the above conditions, and the test was stopped by removing the test compound and replacing with 100 μL of 50 mM formic acid in water at 4° C. […] The compounds in Table 1 are all dihydropyrimidine-oxadiazoles which vary only at the oxadiazole side chain.

[2] = system: healthy male volunteer human subjects; test: Monitoring of cholinergic side effects in healthy volunteers; format: in vivo; conditions: 6 subjects
Procedure: A single 5 mg capsule or 5×0.2 mg capsules (1 mg total dose) were administered orally to healthy male volunteer human subjects with 125 ml of water. Six such subjects receiving the 5 mg dose, and a different 6 subjects received the 1 mg dose.
Subjects were monitored, among other things, for typical signs of muscarinic cholinergic action, such as increased salivation, lachrimation and diaphoresis.

rat M3 receptors = target: T2, rat M3 receptors (Rattus norvegicus, UniProt P08483); test: PI turnover (inositol phosphate production) in M3-CHO cells; format: cell-based; conditions: mean Smax relative to carbachol (100.0); CHO cells expressing rat M3
T2 construct: host or cells: CHO (M3-CHO)
Procedure: as §1

T2 sequence (P08483 whole entry): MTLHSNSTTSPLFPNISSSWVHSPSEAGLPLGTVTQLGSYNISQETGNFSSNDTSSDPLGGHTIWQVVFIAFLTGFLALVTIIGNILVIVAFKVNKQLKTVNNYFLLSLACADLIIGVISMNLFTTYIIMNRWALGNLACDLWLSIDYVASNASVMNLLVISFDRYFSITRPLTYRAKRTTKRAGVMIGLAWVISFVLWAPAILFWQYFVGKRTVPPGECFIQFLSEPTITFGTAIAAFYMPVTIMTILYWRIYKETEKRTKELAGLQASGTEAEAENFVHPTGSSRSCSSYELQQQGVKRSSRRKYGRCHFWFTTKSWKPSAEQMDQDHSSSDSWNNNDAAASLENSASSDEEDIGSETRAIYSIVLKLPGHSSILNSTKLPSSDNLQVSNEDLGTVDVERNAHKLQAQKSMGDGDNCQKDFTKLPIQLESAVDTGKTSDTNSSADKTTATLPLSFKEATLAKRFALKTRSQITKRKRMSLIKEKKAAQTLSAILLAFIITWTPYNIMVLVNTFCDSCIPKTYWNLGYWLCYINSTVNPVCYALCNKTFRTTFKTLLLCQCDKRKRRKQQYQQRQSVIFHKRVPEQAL

CCc1noc(C2CN=CNC2)n1 (centres unmarked) [MCD-386, 3-ethyl-5-(1,4,5,6-tetrahydropyrimidin-5-yl)-1,2,4-oxadiazole]
Papp (PAMPA test, Example 34): 0.05 ×10⁻⁶ cm/s
bioavailability by transdermal delivery versus oral administration [1]: up to three times higher
Plasma Concentration ([1]; iontophoresis patch, dose 3.2 mg/kg, 30 minutes): 848 nM
activity in the apomorphine induced climbing model (CD-I mice): inactive
M1/CHO PI turnover Relative Mean Smax (rat M1 receptors): 70.0
observable cholinergic side effects ([2]; 1 mg total oral dose cohort): none of the subjects in the 1 mg total dose cohort experienced any observable cholinergic side effects
observable cholinergic side effects ([2]; 5 mg oral dose cohort): four subjects showed signs of muscarinic cholinergic activity
M3/CHO PI turnover Relative Mean Smax (rat M3 receptors): 46.4
